# In paper PMC7394005, “Assessing the Selectivity of FXR, LXRs, CAR, and RORγ Pharmaceutical Ligands With Reporter Cell Lines” (Frontiers in Pharmacology, 2020):
# Key:
# HG5LN parental cell line = assay: Non-specific modulation of luciferase expression in HG5LN parental cell line; format: cell-based, human; conditions: HG5LN parental cells lacking Gal4-NRs; Figure S2
# Procedure: HG5LN and HG5LN PXR cells have already been described ([Delfosse et al., 2015]). To characterize the specificity of chemicals for human FXR, LXRα, LXRβ, CAR and RORγ, we established in a similar manner HG5LN FXR, LXRα, LXRβ, CAR WT, CAR (APYLT) and RORγ reporter cell lines. HG5LN are HeLa cells stably transfected by the (GAL4RE)5-βGlob-Luc-SVNeo plasmid ([Seimandi et al., 2005]). These cells were stably transfected by pSG5-GAL4 (DBD)-NRs (LBD)-puromycin plasmid and selected in presence of 0.5 µg/ml puromycin. […] From each HG5LN NR cells, 5 to 10 clones were chosen for their ligand inducibility of luciferase expression. We noted that the basal activity in absence of ligand strongly differed among NRs. FXR, LXRs, and CAR APYLT had the lowest basal activities, whereas CAR and RORγ had the highest. The most inducible clones were expanded and rechecked for inducibility and aliquots were frozen at different passages. One clone per receptor was maintained in culture and used for ligand screening. HG5LN cells were cultured in Dulbecco’s modified Eagle’s medium (DMEM): Nutrient Mixture F-12 (DMEM/F-12) containing phenol red and 1 g/l glucose and supplemented with 5% fetal bovine serum, 100 units/ml of penicillin, 100 µg/ml of streptomycin and 1 mg/ml geneticin, in 5% CO2 humidified atmosphere at 37°C. Stably transfected cell lines derived from HG5LN cells were cultured in the same culture medium supplemented with 0.5 µg/ml puromycin.
# Individual reporter cell lines were seeded at a density of 40,000 cells per well in 96-well white opaque tissue culture plates (Greiner CellStar) in Dulbecco’s Modified Eagle Medium: Nutrient Mixture F-12 (DMEM/F-12) without phenol red and 1 g/l glucose and supplemented with 5% stripped fetal bovine serum, 100 units/ml of penicillin, 100 µg/ml of streptomycin (test medium). Chemicals to be tested were added 24h later, and cells were incubated at 37°C for 16h. Experiments were performed in quadruplicates. At the end of the incubation period, culture medium was replaced with test medium containing 0.3 mM luciferin solution. Luciferase activity was measured for 2s in intact living cells after 10 min stabilization using a Micro Beta Wallac luminometer (PerkinElmer). EC50 values were calculated using GraphPad Prism (GraphPad Software Inc).
# To evaluate the FXR, LXRα, LXRβ, PXR, CAR, and RORγ specificity of pharmaceutical chemicals, we established HG5LN reporter cell lines expressing human FXR, LXRα, LXRβ, CAR, CAR (+ APYLT), and RORγ. Then, we tested the agonistic/antagonistic potential of 22 commercially available pharmaceutical compounds ( Figure S1 ) on these cells and in the previously established PXR cell line ([Delfosse et al., 2015]). The 22 chemicals were first tested for non-specific modulation of luciferase expression on the HG5LN parental cell line, which contains the same reporter gene as HG5LN-GAL4-NRs cells, but lacks of Gal4-NRs. […] The basal (in absence of ligand) and the maximal (in presence of NR-specific full agonist) activities of HG5LN and the different HG5LN GAL4-NRs were measured. […] The expression of FXR induced the slight repression of basal transcription, while both LXRs and PXR had no effect, or just slightly activated the basal transcription ( Figure 1 ). Consequently, the baseline activities were normalized as percentage of maximal activity mediated by full agonists, as follows: 6% for FXR, 8% for LXRα, 9% for LXRβ, 19% for PXR ( Table 1 ). On the contrary, the basal activity was increased by the expression of CAR and RORγ. Due to the inherent constitutive activity, we determined this activity equal to 100% as the specific agonists were not able to reveal their transactivation potential alone, but they were able to reverse the inhibition caused by antagonists/reverse agonists. To characterize easily CAR agonists, we used cell line expressing a variant of CAR (CAR + APYLT) with reduced basal ([Auerbach et al., 2003]). […]
# CAR/SRC-1 = test system: CAR/SRC-1; set-up: method as in Maglich et al., 2003; conditions: ref Maglich et al., 2003; read-out: EC50 in the CAR/SRC-1 FRET assay; cited from earlier work
# FXR = test system: FXR; set-up: method as in Yu et al., 2014; conditions: ref Yu et al., 2014; read-out: IC50 in FXR cell-based antagonistic assays; cited from earlier work
# LXRβ = conditions: luciferase reporter gene with LXR response elements in HEK293 cells; ref Peng et al., 2011; cited from earlier work
# [1] = test system: type 1 diabetes model mice; set-up: method as in Solt et al., 2015; conditions: ref Solt et al., 2015; cited from earlier work
# RORγt = test system: RORγt; set-up: method as in Rene et al., 2014; Chang et al., 2016; conditions: full-length RORγt transfected cells; ref Rene et al., 2014; Chang et al., 2016; read-out: EC50, induction of reporter gene expression; cited from earlier work
# hPXR LBD = test system: hPXR LBD; set-up: method as in Shukla et al., 2011; conditions: ref Shukla et al., 2011; cited from earlier work
# hPXR = test system: hPXR; set-up: method as in Lin et al., 2017; conditions: ref Lin et al., 2017; read-out: IC50 in the cell-based hPXR antagonistic assay; cited from earlier work
compound,measurement,setting,value
Clc1ccc(-c2nc3sccn3c2/C=N/OCc2ccc(Cl)c(Cl)c2)cc1 [CITCO],Nonspecific activation of luciferase expression in HG5LN parental cell line,HG5LN parental cell line,significant nonspecific activation
same,EC50,CAR/SRC-1,49 nM
"Clc1ccccc1C(c1ccccc1)(c1ccccc1)n1ccnc1 [Clotrimazole, clotrimazole]",Toxicity (non-specific decrease of luciferase expression) in HG5LN parental cell line,HG5LN parental cell line,most toxic
COc1cccc(Cn2cc(C(=O)Nc3ccc(C)c(S(=O)(=O)N4CCOCC4)c3)c(-c3ccc(C)cc3)n2)c1 [DY268],Nonspecific activation of luciferase expression in HG5LN parental cell line,HG5LN parental cell line,significant nonspecific activation
same,IC50,FXR,468 nM
Cc1cc(C)c(S(=O)(=O)N(Cc2ccc(-c3cccc(S(C)(=O)=O)c3)cc2)Cc2ccc(C(F)(F)F)o2)c(C)c1 [GSK2033],Nonspecific activation of luciferase expression in HG5LN parental cell line,HG5LN parental cell line,significant nonspecific activation
O=C(O)Cc1cccc(OCCCN(Cc2cccc(C(F)(F)F)c2Cl)CC(c2ccccc2)c2ccccc2)c1 [GW3965],LXRβ agonistic potency,LXRβ,nanomolar
CC(C)c1onc(-c2c(Cl)cccc2Cl)c1COc1ccc(/C=C/c2cccc(C(=O)O)c2)c(Cl)c1 [GW4064],Nonspecific activation of luciferase expression in HG5LN parental cell line,HG5LN parental cell line,significant nonspecific activation
CC(=O)Nc1nc(C)c(S(=O)(=O)Nc2ccc(C(O)(C(F)(F)F)C(F)(F)F)cc2)s1 [SR1001],Diabetes incidence and insulitis,[1],significantly reduced diabetes incidence and insulitis
O=C(Nc1ccc(C(O)(C(F)(F)F)C(F)(F)F)cc1)c1ccc(C(F)(F)F)cc1 [SR1078],EC50,RORγt,800 nM
CCOP(=O)(OCC)C(=Cc1cc(C(C)(C)C)c(O)c(C(C)(C)C)c1)P(=O)(OCC)OCC [SR12813],EC50,hPXR LBD,440 nM
Fc1ccc(-c2c3cccc(C(F)(F)F)c3nn2Cc2ccc(F)cc2Cl)cc1 [WAY252623],Nonspecific activation of luciferase expression in HG5LN parental cell line,HG5LN parental cell line,significant nonspecific activation
SPA70,Toxicity (non-specific decrease of luciferase expression) in HG5LN parental cell line,HG5LN parental cell line,most toxic
same,IC50,hPXR,510 nM
